Measured values taken from patent publication US10322111B2, “Chemokine receptor binding heterocyclic compounds with enhanced efficacy” (Genzyme Corporation, priority 2001, dated 2019).
Where two headings read alike, the source gives them in different places.

Test system: CFU-GM, BFU-E and CFU-GEMM progenitor cells
Conditions: 80 μg/kg s.c.

Structure (SMILES): c1cc(CN2CCCNCCNCCCNCC2)ccc1CN1CCCNCCNCCCNCC1 [AMD3100, 1,1′-[1,4-phenylene-bis(methylene)]-bis-1,4,8,11-tetraazacyclotetradecane]
- Absolute # of Progenitors per ML, BFU-E (P1, T = 1 h after injection): 674 per ML
- Absolute # of Progenitors per ML, CFU-GEMM (P1, T = 1 h after injection): 264 per ML
- Absolute # of Progenitors per ML, CFU-GM (P1, T = 1 h after injection): 1259 per ML
- fold change from T=0, progenitors BFU-E, methylcellulose culture (P1, T = 1 h after injection): 2.58 fold
- fold change from T=0, progenitors CFU-GEMM, methylcellulose culture (P1, T = 1 h after injection): 2.07 fold
- fold change from T=0, progenitors CFU-GM, methylcellulose culture (P1, T = 1 h after injection): 5.09 fold
- Absolute # of Progenitors per ML, BFU-E (P1, T = 3 h after injection): 1340 per ML
- Absolute # of Progenitors per ML, CFU-GEMM (P1, T = 3 h after injection): 540 per ML
- Absolute # of Progenitors per ML, CFU-GM (P1, T = 3 h after injection): 1760 per ML
- fold change from T=0, progenitors BFU-E, methylcellulose culture (P1, T = 3 h after injection): 5.13 fold
- fold change from T=0, progenitors CFU-GEMM, methylcellulose culture (P1, T = 3 h after injection): 4.25 fold
- fold change from T=0, progenitors CFU-GM, methylcellulose culture (P1, T = 3 h after injection): 7.12 fold
- Absolute # of Progenitors per ML, BFU-E (P1, T = 6 h after injection): 2388 per ML
- Absolute # of Progenitors per ML, CFU-GEMM (P1, T = 6 h after injection): 949 per ML
- Absolute # of Progenitors per ML, CFU-GM (P1, T = 6 h after injection): 3624 per ML
- fold change from T=0, progenitors BFU-E, methylcellulose culture (P1, T = 6 h after injection): 9.14 fold
- fold change from T=0, progenitors CFU-GEMM, methylcellulose culture (P1, T = 6 h after injection): 7.47 fold
- fold change from T=0, progenitors CFU-GM, methylcellulose culture (P1, T = 6 h after injection): 14.66 fold
- Absolute # of Progenitors per ML, BFU-E (P1, T = 9 h after injection): 1418 per ML
- Absolute # of Progenitors per ML, CFU-GEMM (P1, T = 9 h after injection): 335 per ML
- Absolute # of Progenitors per ML, CFU-GM (P1, T = 9 h after injection): 1547 per ML
- fold change from T=0, progenitors BFU-E, methylcellulose culture (P1, T = 9 h after injection): 5.43 fold
- fold change from T=0, progenitors CFU-GEMM, methylcellulose culture (P1, T = 9 h after injection): 2.64 fold
- fold change from T=0, progenitors CFU-GM, methylcellulose culture (P1, T = 9 h after injection): 6.26 fold
- Absolute # of Progenitors per ML, BFU-E (P1, T = 24 h after injection): 278 per ML
- Absolute # of Progenitors per ML, CFU-GEMM (P1, T = 24 h after injection): 142 per ML
- Absolute # of Progenitors per ML, CFU-GM (P1, T = 24 h after injection): 271 per ML
- fold change from T=0, progenitors BFU-E, methylcellulose culture (P1, T = 24 h after injection): 1.06 fold
- fold change from T=0, progenitors CFU-GEMM, methylcellulose culture (P1, T = 24 h after injection): 1.12 fold
- fold change from T=0, progenitors CFU-GM, methylcellulose culture (P1, T = 24 h after injection): 1.10 fold
- Absolute # of Progenitors per ML, BFU-E (P2, T = 1 h after injection): 608 per ML
- Absolute # of Progenitors per ML, CFU-GEMM (P2, T = 1 h after injection): 272 per ML
- Absolute # of Progenitors per ML, CFU-GM (P2, T = 1 h after injection): 1455 per ML
- fold change from T=0, progenitors BFU-E, methylcellulose culture (P2, T = 1 h after injection): 1.48 fold
- fold change from T=0, progenitors CFU-GEMM, methylcellulose culture (P2, T = 1 h after injection): 2.26 fold
- fold change from T=0, progenitors CFU-GM, methylcellulose culture (P2, T = 1 h after injection): 5.33 fold
- Absolute # of Progenitors per ML, BFU-E (P2, T = 3 h after injection): 809 per ML
- Absolute # of Progenitors per ML, CFU-GEMM (P2, T = 3 h after injection): 418 per ML
- Absolute # of Progenitors per ML, CFU-GM (P2, T = 3 h after injection): 4646 per ML
- fold change from T=0, progenitors BFU-E, methylcellulose culture (P2, T = 3 h after injection): 1.98 fold
- fold change from T=0, progenitors CFU-GEMM, methylcellulose culture (P2, T = 3 h after injection): 3.47 fold
- fold change from T=0, progenitors CFU-GM, methylcellulose culture (P2, T = 3 h after injection): 17.02 fold
- Absolute # of Progenitors per ML, BFU-E (P2, T = 6 h after injection): 1502 per ML
- Absolute # of Progenitors per ML, CFU-GEMM (P2, T = 6 h after injection): 1126 per ML
- Absolute # of Progenitors per ML, CFU-GM (P2, T = 6 h after injection): 6540 per ML
- fold change from T=0, progenitors BFU-E, methylcellulose culture (P2, T = 6 h after injection): 3.67 fold
- fold change from T=0, progenitors CFU-GEMM, methylcellulose culture (P2, T = 6 h after injection): 9.35 fold
- fold change from T=0, progenitors CFU-GM, methylcellulose culture (P2, T = 6 h after injection): 23.96 fold
- Absolute # of Progenitors per ML, BFU-E (P2, T = 9 h after injection): 1886 per ML
- Absolute # of Progenitors per ML, CFU-GEMM (P2, T = 9 h after injection): 854 per ML
- Absolute # of Progenitors per ML, CFU-GM (P2, T = 9 h after injection): 3416 per ML
- fold change from T=0, progenitors BFU-E, methylcellulose culture (P2, T = 9 h after injection): 4.61 fold
- fold change from T=0, progenitors CFU-GEMM, methylcellulose culture (P2, T = 9 h after injection): 7.09 fold
- fold change from T=0, progenitors CFU-GM, methylcellulose culture (P2, T = 9 h after injection): 12.51 fold
- Absolute # of Progenitors per ML, BFU-E (P2, T = 24 h after injection): 768 per ML
- Absolute # of Progenitors per ML, CFU-GEMM (P2, T = 24 h after injection): 316 per ML
- Absolute # of Progenitors per ML, CFU-GM (P2, T = 24 h after injection): 521 per ML
- fold change from T=0, progenitors BFU-E, methylcellulose culture (P2, T = 24 h after injection): 1.88 fold
- fold change from T=0, progenitors CFU-GEMM, methylcellulose culture (P2, T = 24 h after injection): 2.62 fold
- fold change from T=0, progenitors CFU-GM, methylcellulose culture (P2, T = 24 h after injection): 1.91 fold
- Absolute # of Progenitors per ML, BFU-E (P3, T = 1 h after injection): 806 per ML
- Absolute # of Progenitors per ML, CFU-GEMM (P3, T = 1 h after injection): 312 per ML
- Absolute # of Progenitors per ML, CFU-GM (P3, T = 1 h after injection): 1040 per ML
- fold change from T=0, progenitors BFU-E, methylcellulose culture (P3, T = 1 h after injection): 2.30 fold
- fold change from T=0, progenitors CFU-GEMM, methylcellulose culture (P3, T = 1 h after injection): 2.22 fold
- fold change from T=0, progenitors CFU-GM, methylcellulose culture (P3, T = 1 h after injection): 3.70 fold
- Absolute # of Progenitors per ML, BFU-E (P3, T = 3 h after injection): 915 per ML
- Absolute # of Progenitors per ML, CFU-GEMM (P3, T = 3 h after injection): 610 per ML
- Absolute # of Progenitors per ML, CFU-GM (P3, T = 3 h after injection): 4233 per ML
- fold change from T=0, progenitors BFU-E, methylcellulose culture (P3, T = 3 h after injection): 2.61 fold
- fold change from T=0, progenitors CFU-GEMM, methylcellulose culture (P3, T = 3 h after injection): 4.34 fold
- fold change from T=0, progenitors CFU-GM, methylcellulose culture (P3, T = 3 h after injection): 15.07 fold
- Absolute # of Progenitors per ML, BFU-E (P3, T = 6 h after injection): 1593 per ML
- Absolute # of Progenitors per ML, CFU-GEMM (P3, T = 6 h after injection): 916 per ML
- Absolute # of Progenitors per ML, CFU-GM (P3, T = 6 h after injection): 5895 per ML
- fold change from T=0, progenitors BFU-E, methylcellulose culture (P3, T = 6 h after injection): 4.54 fold
- fold change from T=0, progenitors CFU-GEMM, methylcellulose culture (P3, T = 6 h after injection): 6.52 fold
- fold change from T=0, progenitors CFU-GM, methylcellulose culture (P3, T = 6 h after injection): 20.99 fold
- Absolute # of Progenitors per ML, BFU-E (P3, T = 9 h after injection): 1302 per ML
- Absolute # of Progenitors per ML, CFU-GEMM (P3, T = 9 h after injection): 347 per ML
- Absolute # of Progenitors per ML, CFU-GM (P3, T = 9 h after injection): 2647 per ML
- fold change from T=0, progenitors BFU-E, methylcellulose culture (P3, T = 9 h after injection): 3.71 fold
- fold change from T=0, progenitors CFU-GEMM, methylcellulose culture (P3, T = 9 h after injection): 2.47 fold
- fold change from T=0, progenitors CFU-GM, methylcellulose culture (P3, T = 9 h after injection): 9.42 fold
- Absolute # of Progenitors per ML, BFU-E (P3, T = 24 h after injection): 402 per ML
- Absolute # of Progenitors per ML, CFU-GEMM (P3, T = 24 h after injection): 97 per ML
- Absolute # of Progenitors per ML, CFU-GM (P3, T = 24 h after injection): 402 per ML
- fold change from T=0, progenitors BFU-E, methylcellulose culture (P3, T = 24 h after injection): 1.14 fold
- fold change from T=0, progenitors CFU-GEMM, methylcellulose culture (P3, T = 24 h after injection): 0.69 fold
